{
  "source": "patent US10780076B2",
  "about": "“Inhibition of cancer cell motility” (Northwestern University, priority 2014, dated 2020)",
  "key": {"NCI 60 cell line panel": {"tested_on": "NCI 60 cell line panel", "experiment": "NCI 60 cell line panel screen", "type": "cell-based, human", "conditions": "initial screening per DTP protocol", "description": "FIG. 8. […] KBU2046 was submitted to the Developmental Therapeutics Program (DTP) of the US National Cancer Institute (NCI), underwent initial screening across the NCI 60 cell line panel per DTP protocol (Shoemaker, 2006; herein incorporated by reference in its entirety), and the resultant COMPARE diagram is depicted.\nAdditional functional measures of toxicity included a NCI-based screen of the NCI 60-cell line panel (Shoemaker, 2006; herein incorporated by reference in its entirety), expression of estrogen-responsive genes by qRT/PCR (Ding et al., 2007; herein incorporated by reference in its entirety), induction of an estrogen-responsive promoter by luciferase assay (Breen et al., 2013; Catherino and Jordan, 1995; herein incorporated by reference in their entireties), and a hematopoietic stem cell 14-day colony formation assay (Bergan et al., 1996; herein incorporated by reference in its entirety). Protein Data Base (PDB) X-ray crystallographic structural data (PDB IDs: IX7R, IX7J) was used to determine what chemical groups of genistein bound to the ER. The migration of individual cells was assessed by time-lapse video microscopy."}, "[1]": {"experiment": "Plasma KBU2046 concentration in chow-treated athymic mice", "type": "in vivo", "method": "(§1) FIGS. 3A-D. KBU2046 inhibits cancer metastasis and prolongs life. (A, B) Inhibition of PCa metastasis. Cohorts of athymic mice bearing human PCa PC3-M cell orthotopic implants (A), or of non-tumor bearing athymic mice (B), were treated with KBU2046 incorporated into chow, and resultant lung metastasis (A) or plasma KBU2046 concentration (B) measured. Values are the mean±SEM. The relationship between dose and metastasis was evaluated by two-sided ANOVA (A). (C) Comprehensive characterization of KBU2046 phannacokinetics. CD1 mice were dosed with 100 mg KBU2046/kg via oral gavage or intravenous injection (iv), and blood collected at the indicated time points. The dotted horizontal line denotes a concentration of 24 nM, which was the concentration of KBU2046 measured in the blood of mice whose metastasis were suppressed by 92% (A, B). […]\nOrthotopic implantation of human PCa cells and quantification of distant metastasis was performed as described (Pavese et al., 2013; herein incorporated by reference in its entirety). […] Quantification of KBU2046 plasma concentrations was performed by LCMS. […] Critical organs were examined for structural damage using a semi-quantitative histological scoring system (Knodell et al., 1981; herein incorporated by reference in its entirety), while their function was assessed by comprehensive clinical laboratory testing of blood samples. […]"}, "human prostate cells": {"tested_on": "human prostate cells", "experiment": "Three day cell growth inhibition, prostate cells", "type": "cell-based", "conditions": "3 days"}, "[2]": {"tested_on": "phosphorylated Ser226 on HSP90β in PC3 cells", "experiment": "PhosphoScan LC-MS/MS of BL4176 immunoprecipitate", "type": "cell-based, human", "conditions": "10 μM, 3 days, then TGFβ", "method": "FIG. 16. Identification of the 83 kDa band using a proteomic approach. PC3 cells were pre-treated with 10 μM KBU2046 or vehicle (control) for 3 days, then treated with TGFβ for 1 hr, and the resultant cell lysates were subjected to immunoprecipitation with BL4176 (Kinoview® phospho-motif antibody). Proteins bound in this manner were analyzed using PhosphoScan™ technology. This identified 483 unique phosphopeptide assignments from 306 parent proteins, with a mean false discovery rate of 0.30% (estimated via Sorcerer search of composite human database of forward and reverse protein entries). Only proteins where the average values for treatment and control were each 3 times that of background were considered. Further, it was required that each of the replicate values (used to calculate the average) to be >/=2.5 fold above background. According to these parameters, there were 19 phospho-proteins whose expression decreased in cells treated with KBU2046, compared to control.\nScreening for changes in the kinome induced by KBU2046 were evaluated with the Kinoview™ assay system. Proteins pulled down by motif-directed Kinoview™ antibody were identified through PhosphoScan™ technology, using LTQ-Orbitrap LC-MS/MS analysis coupled to a SEQUEST/Sorcerer data analysis suite (Lundgren et al., 2009; herein incorporated by reference in its entirety). […]"}, "[3]": {"experiment": "Pharmacokinetics in CD1 mice", "type": "in vivo", "conditions": "single oral dose", "method": "as §1\nFIG. 11. […] (top graph) Concentration versus time plot, expressed as ng/ml. The 100 mg dosing data was re-plotted and expressed as nM. […] Values are parameter estimates from a naive pooled data approach in which single plasma concentrations measured for individual animals were pooled for both routes of administration of both doses and modeled simultaneously.\nOrthotopic implantation of human PCa cells and quantification of distant metastasis was performed as described (Pavese et al., 2013; herein incorporated by reference in its entirety). […]"}},
  "data": [
    {"compound": "O=C1c2ccccc2OCC1c1ccc(F)cc1", "note": "(racemic) [KBU2046, 4′-fluoroisoflavanone]", "values": [
      {"measurement": "cell toxicity in NCI 60 cell line panel", "setting": "NCI 60 cell line panel", "value": "minimal-to-no cell toxicity"},
      {"measurement": "plasma concentrations at which metastasis decreased", "setting": "[1]", "value": "1.1 to 24", "unit": "nM"},
      {"measurement": "toxicity to human prostate cells (cell growth inhibition)", "setting": "human prostate cells", "value": "not toxic"},
      {"measurement": "decrease in abundance of phosphorylated Ser226 on HSP90β", "setting": "[2]", "value": 6.6, "unit": "fold"},
      {"measurement": "time plasma concentration maintained >24 nM", "setting": "[3]", "value": 9.3, "unit": "h"}
    ]}
  ]
}
